Test results taken from PubChem BioAssay AID328 (DTP/NCI, 2004).
Where “and” joins values, the source holds several entries; their conditions need not be identical. Identical values can stand only once. Toxic doses and inconclusive results are not listed.

Test system: BDF1 mice, P388 leukemia ip, median survival T/C
Assay: NCI In Vivo Anticancer Drug Screen. Data for tumor model P388 Leukemia (intraperitoneal) in B6D2F1 (BDF1) mice
Conditions: endpoint: median survival time, higher = longer survival
Procedure, shortened: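 Mice carrying the transplantable tumour receive compound or vehicle. Survival is followed in each arm, and the treated measure is divided by the vehicle measure.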

[1] = dose: 12.5 mg/kg/injection, schedule: Q01DX009 (ip), vehicle: Klucel (hydroxypropylcellulose) (HPC)
[2] = dose: 12.5 mg/kg/injection, schedule: Q01DX009 (ip), vehicle: saline
[3] = dose: 25.0 mg/kg/injection, schedule: Q01DX009 (ip), vehicle: saline
[4] = dose: 50.0 mg/kg/injection, schedule: Q04DX003 (ip), vehicle: saline
[5] = dose: 100.0 mg/kg/injection, schedule: Q01DX009 (ip), vehicle: Klucel (hydroxypropylcellulose) (HPC)
[6] = dose: 100.0 mg/kg/injection, schedule: Q04DX003 (ip), vehicle: saline with Tween-80
[7] = dose: 200.0 mg/kg/injection, schedule: Q04DX003 (ip), vehicle: saline with Tween-80
[8] = dose: 400.0 mg/kg/injection, schedule: Q04DX003 (ip), vehicle: saline with Tween-80
[9] = dose: 12.5 mg/kg/injection, schedule: Q04DX003 (ip), vehicle: saline with Tween-80
[10] = dose: 25.0 mg/kg/injection, schedule: Q04DX003 (ip), vehicle: saline with Tween-80

N[C@H](C(=O)O)[C@H]1ON=C(Cl)[C@@H]1O
T/C (dose: 0.5 mg/kg/injection, schedule: Q01DX009 (ip), vehicle: saline with Tween-80): 105 % of control | T/C (dose: 1.0 mg/kg/injection, schedule: Q01DX009 (ip), vehicle: saline with Tween-80): 105 % of control | T/C (dose: 2.0 mg/kg/injection, schedule: Q01DX009 (ip), vehicle: saline with Tween-80): 117 % of control | T/C (dose: 6.25 mg/kg/injection, schedule: Q01DX009 (ip), vehicle: saline): 160 % of control | T/C (dose: 8.0 mg/kg/injection, schedule: Q01DX009 (ip), vehicle: saline): 160 % of control | T/C [1]: 239 % of control | T/C [2]: 165 % of control | T/C (dose: 12.5 mg/kg/injection, schedule: Q04DX003 (ip), vehicle: saline): 96 % of control | T/C (dose: 16.0 mg/kg/injection, schedule: Q01DX009 (ip), vehicle: saline): 168 % of control | T/C (dose: 25.0 mg/kg/injection, schedule: Q01DX009 (ip), vehicle: Klucel (hydroxypropylcellulose) (HPC)): 195 % of control | T/C [3]: 195 % of control | T/C (dose: 25.0 mg/kg/injection, schedule: Q04DX003 (ip), vehicle: saline): 111 % of control | T/C (dose: 32.0 mg/kg/injection, schedule: Q01DX009 (ip), vehicle: saline): 167 % of control | T/C (dose: 44.0 mg/kg/injection, schedule: Q01DX009 (ip), vehicle: other): 158 % of control | T/C (dose: 50.0 mg/kg/injection, schedule: Q01DX009 (ip), vehicle: Klucel (hydroxypropylcellulose) (HPC)): 188 % of control | T/C (dose: 50.0 mg/kg/injection, schedule: Q01DX009 (ip), vehicle: saline): 215 % of control | T/C [4]: 111 % of control | T/C (dose: 64.0 mg/kg/injection, schedule: Q01DX009 (ip), vehicle: saline): 193 % of control | T/C [5]: 206 % of control | T/C (dose: 100.0 mg/kg/injection, schedule: Q01DX009 (ip), vehicle: other): 170 % of control | T/C (dose: 100.0 mg/kg/injection, schedule: Q01DX009 (ip), vehicle: saline): 110 % of control | T/C (dose: 128.0 mg/kg/injection, schedule: Q01DX009 (ip), vehicle: saline): 228 % of control | T/C (dose: 200.0 mg/kg/injection, schedule: Q01DX009 (ip), vehicle: saline): 90 % of control | T/C (dose: 250.0 mg/kg/injection, schedule: Q01DX009 (ip), vehicle: saline): 192 % of control | T/C (dose: 256.0 mg/kg/injection, schedule: Q01DX009 (ip), vehicle: saline): 270 % of control | T/C (dose: 400.0 mg/kg/injection, schedule: Q04DX003 (ip), vehicle: saline): 238 % of control

CCOP(=O)(N1CC1(C)C)N1CC1(C)C (stereo unspecified)
T/C (dose: 50.0 mg/kg/injection, schedule: Q04DX003 (ip), vehicle: alcohol): 110 % of control | T/C (dose: 66.0 mg/kg/injection, schedule: Q04DX003 (ip), vehicle: saline): 280 % of control and 172 % of control | T/C (dose: 100.0 mg/kg/injection, schedule: Q04DX003 (ip), vehicle: saline): 272 % of control and 300 % of control | T/C (dose: 150.0 mg/kg/injection, schedule: Q04DX003 (ip), vehicle: saline): 272 % of control and 95 % of control

O=P(N1CCOCC1)(N1CC1)N1CC1
T/C [2]: 251 % of control and 290 % of control | T/C [3]: 90 % of control

COC(=O)c1c(O)cc(OC)cc1OC
T/C [5]: 111 % of control | T/C (dose: 100.0 mg/kg/injection, schedule: Q04DX003 (ip), vehicle: Klucel (hydroxypropylcellulose) (HPC)): 100 % of control | T/C (dose: 200.0 mg/kg/injection, schedule: Q01DX009 (ip), vehicle: Klucel (hydroxypropylcellulose) (HPC)): 100 % of control | T/C (dose: 200.0 mg/kg/injection, schedule: Q04DX003 (ip), vehicle: Klucel (hydroxypropylcellulose) (HPC)): 95 % of control | T/C (dose: 400.0 mg/kg/injection, schedule: Q01DX009 (ip), vehicle: Klucel (hydroxypropylcellulose) (HPC)): 100 % of control | T/C (dose: 400.0 mg/kg/injection, schedule: Q04DX003 (ip), vehicle: Klucel (hydroxypropylcellulose) (HPC)): 95 % of control

CCCCNC(C)(C)C(=O)c1ccco1
T/C [6]: 86 % of control | T/C [7]: 100 % of control

Nc1ccn(C2OC(COP(=O)(O)O)C(O)C2O)c(=O)n1 (stereo unspecified)
T/C (dose: 4.2 mg/kg/injection, schedule: Q04DX003 (ip), vehicle: saline with Tween-80): 113 % of control | T/C (dose: 6.3 mg/kg/injection, schedule: Q04DX003 (ip), vehicle: saline with Tween-80): 113 % of control | T/C (dose: 9.6 mg/kg/injection, schedule: Q04DX003 (ip), vehicle: saline): 150 % of control | T/C [4]: 159 % of control | T/C (dose: 75.0 mg/kg/injection, schedule: Q04DX003 (ip), vehicle: saline): 172 % of control | T/C (dose: 100.0 mg/kg/injection, schedule: Q01DX009 (ip), vehicle: saline with Tween-80): 187 % of control | T/C (dose: 115.0 mg/kg/injection, schedule: Q04DX003 (ip), vehicle: saline with Tween-80): 172 % of control | T/C (dose: 175.0 mg/kg/injection, schedule: Q04DX003 (ip), vehicle: saline with Tween-80): 168 % of control | T/C (dose: 200.0 mg/kg/injection, schedule: Q01DX009 (ip), vehicle: saline with Tween-80): 112 % of control | T/C (dose: 264.0 mg/kg/injection, schedule: Q04DX003 (ip), vehicle: saline with Tween-80): 181 % of control | T/C [8]: 154 % of control | T/C (dose: 600.0 mg/kg/injection, schedule: Q04DX003 (ip), vehicle: saline with Tween-80): 177 % of control

CC(C)(C)/C([O-])=N/[N+](C)(C)C
T/C (dose: 50.0 mg/kg/injection, schedule: Q01DX001 (ip), vehicle: saline): 109 % of control | T/C (dose: 100.0 mg/kg/injection, schedule: Q01DX001 (ip), vehicle: saline): 104 % of control | T/C (dose: 200.0 mg/kg/injection, schedule: Q01DX001 (ip), vehicle: saline): 104 % of control

CC1CC=CCC1COC(=O)C(=O)OCC1CC=CCC1C (stereo unspecified)
T/C [6]: 105 % of control | T/C [7]: 105 % of control | T/C [8]: 110 % of control

Cc1cccc2c(N3CCOCC3)c3c(nc12)CCCCC3
T/C [6]: 105 % of control | T/C [7]: 95 % of control | T/C [8]: 100 % of control

O=C(O)c1ccc(O)c(=O)cc1
T/C (dose: 12.5 mg/kg/injection, schedule: Q01DX001 (ip), vehicle: saline with Tween-80): 102 % of control

Cc1nc2ccccc2nc1CBr
T/C (dose: 2.66 mg/kg/injection, schedule: Q01DX009 (ip), vehicle: saline with Tween-80): 109 % of control | T/C (dose: 3.12 mg/kg/injection, schedule: Q01DX009 (ip), vehicle: Klucel (hydroxypropylcellulose) (HPC)): 111 % of control | T/C (dose: 6.0 mg/kg/injection, schedule: Q01DX009 (ip), vehicle: saline with Tween-80): 122 % of control | T/C (dose: 6.25 mg/kg/injection, schedule: Q01DX009 (ip), vehicle: Klucel (hydroxypropylcellulose) (HPC)): 122 % of control | T/C (dose: 6.25 mg/kg/injection, schedule: Q04DX003 (ip), vehicle: saline with Tween-80): 109 % of control | T/C (dose: 6.3 mg/kg/injection, schedule: Q01DX009 (ip), vehicle: Klucel (hydroxypropylcellulose) (HPC)): 105 % of control | T/C [1]: 105 % of control | T/C [9]: 109 % of control | T/C (dose: 25.0 mg/kg/injection, schedule: Q01DX009 (ip), vehicle: saline with Tween-80): 122 % of control | T/C [10]: 113 % of control

COC(=O)C(CCSC)NC(=O)CNC(=O)OC(C)(C)C (stereo unspecified)
T/C (dose: 50.0 mg/kg/injection, schedule: Q01DX005 (ip), vehicle: saline with Tween-80): 100 % of control | T/C (dose: 100.0 mg/kg/injection, schedule: Q01DX005 (ip), vehicle: saline with Tween-80): 105 % of control | T/C (dose: 200.0 mg/kg/injection, schedule: Q01DX005 (ip), vehicle: saline with Tween-80): 102 % of control

O=C(Nc1nc(Cl)nc(Cl)n1)N1CCOCC1
T/C (dose: 6.25 mg/kg/injection, schedule: Q01DX009 (ip), vehicle: saline with Tween-80): 104 % of control | T/C (dose: 9.0 mg/kg/injection, schedule: Q01DX009 (ip), vehicle: saline with Tween-80): 103 % of control | T/C (dose: 12.0 mg/kg/injection, schedule: Q01DX009 (ip), vehicle: saline with Tween-80): 112 % of control | T/C [9]: 118 % of control | T/C (dose: 18.0 mg/kg/injection, schedule: Q01DX009 (ip), vehicle: saline with Tween-80): 112 % of control | T/C [10]: 109 % of control

Cc1cc(C)[s+]s1
T/C (dose: 0.78 mg/kg/injection, schedule: Q01DX009 (ip), vehicle: water): 91 % of control | T/C (dose: 3.12 mg/kg/injection, schedule: Q01DX009 (ip), vehicle: water): 97 % of control | T/C (dose: 6.25 mg/kg/injection, schedule: Q01DX009 (ip), vehicle: water): 91 % of control

CC(=O)c1cc(C)[nH]c1C
T/C (dose: 200.0 mg/kg/injection, schedule: Q04DX003 (ip), vehicle: saline sonified): 115 % of control | T/C (dose: 400.0 mg/kg/injection, schedule: Q04DX003 (ip), vehicle: saline sonified): 100 % of control
